According to patent US20250154174A1, “BICYCLIC HETEROCYCLES AS MRGPRX2 ANTAGONISTS” (Incyte Corporation, priority 2023, published 2025):

How the values were obtained:
MRGPRX2 [1] = target: T1, MRGPRX2 (Homo sapiens, UniProt Q96LB1); assay: MRGPRX2 IP1 HTRF assay; type: cell-based; set-up: host or cells: CHO-K1; conditions: CHO-K1 cells stably expressing human MRGPRX2; agonist Cortistatin 14 1 μM; IP1 accumulation
T1 sequence (Q96LB1 1-330): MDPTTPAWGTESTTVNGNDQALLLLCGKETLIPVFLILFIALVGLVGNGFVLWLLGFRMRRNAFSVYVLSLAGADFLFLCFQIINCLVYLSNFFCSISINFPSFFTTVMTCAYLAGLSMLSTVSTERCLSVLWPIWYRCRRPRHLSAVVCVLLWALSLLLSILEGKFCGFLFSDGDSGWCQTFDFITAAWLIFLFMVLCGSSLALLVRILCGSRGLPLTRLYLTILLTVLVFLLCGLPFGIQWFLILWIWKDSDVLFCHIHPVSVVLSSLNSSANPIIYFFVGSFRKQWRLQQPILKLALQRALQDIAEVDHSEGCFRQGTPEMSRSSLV
Procedure: This assay measures compound inhibition of myo-Inositol 1 phosphate (IP1) accumulation in CHO-K1 cells. Chinese hamster ovary (CHO-K1) cells stably expressing human MRGPRX2 were purchased from GenScript (Piscataway, NJ).
For the HTRF IP1 determination, an IP-One GqKit (Perkin Elmer Cisbio, Waltham, MA), which includes all reagents and buffers in this protocol, was used. The cells were maintained in culture medium (Ham's F-12K) containing 10% (v/v) FBS, and 200 μg/mL Zeocin. For the assay, the cells were harvested and resuspended in culture medium with 2% FBS and without Zeocin, then were passed through a 40 μm filter. Cells were added at 20000 cells in a 5 μL/well to a 384-well white small volume cell culture plate (Greiner VWR, Radnor, PA) which contained 50 nL/well of test compound serially diluted at a selected concentration range in DMSO. 5 μL/well of prepared 2× Stimulation Buffer2 was then added to plates and was incubated at 37° C. with 5% CO2 for 1 h. 5 μL/well of agonist Cortistatin 14 (Bio-TechneR&D Systems, Minneapolis, MN) in 1×Stimulation Buffer 2, for a 1 μM final concentration, was then added to plates and incubated at 37° C. with 5% CO2 for 1 h. 6 μL/well of 1:20 diluted Detection Reagent Mix (d2 and Cryptate) was added to the plates and incubated for 1 h in the dark. Plates were read on the PHERAstar microplate reader (BMG Labtech Cary, NC) to determine the HTRF ratio of the acceptor and donor emission signals. The IP1 concentrations were calculated from a standard curve following the IP-One GQ kit instructions. Wells with DMSO only and wells with high concentration of reference antagonist were used as controls for normalization. Compound IC50 curves were globally fitted with 3- or 4-parameter Hill equation in a Genedata Screener (Genedata Basel, Switzerland).

MRGPRX2 [2] = target: T1, MRGPRX2; assay: MRGPRX2 FLIPR calcium mobilization assay; type: cell-based; set-up: host or cells: CHO-K1; conditions: CHO-K1 cells stably expressing human MRGPRX2; agonist Cortistatin-14 at EC80; Ca2+ release
Procedure: Chinese hamster ovary (CHO-K1) cells stably expressing human MRGPRX2 were purchased from Genescript (Piscataway, NJ). The cells were maintained in culture medium (Ham's F-12K) containing 10% (v/v) FBS, 200 μg/mL Zeocin, 100 units/mL penicillin G and 100 μg/mL streptomycin (Life Technologies, Carlsbad, CA). For the assay, the cells were harvested and resuspended with culture medium without Zeocin before plating at 8000 cells per well in 20 μL in 384-well black clear bottom cell culture plates (VWR, Radnor, PA). After 24 h culture at 37° C. and 5% CO2, the cells were loaded with 20 μL/well of calcium dye (FLIPR Calcium 6 Assay Kit, Molecular Devices, San Jose, CA) diluted in loading buffer (1× Hank's Balanced Salt Solution (HBSS), 5 mM probenecid, 20 mM 4-(2-hydroxyethyl)-1-piperazineethanesulfonic acid (HEPES), pH 7.4, VWR, Radnor, PA) followed with 45 min. incubation at 37° C. and 40 min. at r.t. in the dark. Cells were then treated with the addition of 10 uL/well test compounds with a range of increasing concentrations diluted in the assay buffer (1×HBSS, 20 mM HEPES, pH 7.4, VWR, Radnor, PA) with FLIPR Penta (Molecular Devices. San Jose, CA) and incubated for 30 min. at r.t. Ca^2+ release was measured with FLIPR Penta with 10 s basal fluorescence measurement, then 12.5 μL of 5× agonist Cortistatin-14 (Tocris, Minneapolis, MN) at final concentration corresponding to the EC80 were added followed with continued fluorescence signal monitoring for an additional 110 s. The base line adjusted (median of first 10s base line) max value of the Relative Fluorescence Unit (RFU) was plotted against compound concentrations. Wells with no compound were served as the positive controls, and wells with high concentration of reference antagonist were used as negative controls. IC50 curves were globally fitted with 3- or 4-parameter Hill equation in a Genedata Screener (Genedata Basel, Switzerland).

IC50 (MRGPRX2 [1]) | IC50 (MRGPRX2 [2]) | SMILES
0.1 to 1 µM | 0.1 to 1 µM | Cn1cnc2ccnc(N[C@@H]3CCC[C@H](Nc4cccc5nc(C(F)(F)F)cn45)C3)c21 [Example 1, (1R,3S)—N^1-(3-Methyl-3H-imidazo[4,5-c]pyridin-4-yl)-N^3-(2-(trifluoromethyl)imidazo[1,2-a]pyridin-5-yl)cyclohexane-1,3-diamine]
0.1 to 1 µM | 0.0001 to 0.1 µM | Cn1cnc2ccnc(N[C@H]3CC[C@@H](Nc4cccc5nc(C(F)(F)F)cn45)CC3)c21 [Example 2, (1s,4s)-N^1-(3-Methyl-3H-imidazo[4,5-c]pyridin-4-yl)-N^4-(2-(trifluoromethyl)imidazo[1,2-a]pyridin-5-yl)cyclohexane-1,4-diamine]
0.1 to 1 µM | 0.0001 to 0.1 µM | FC(F)(F)c1cn2c(N[C@H]3CCC[C@@H](Nc4nccn5cncc45)C3)cccc2n1 [Example 4, (1R,3S)—N^1-(Imidazo[1,5-a]pyrazin-8-yl)-N^3-(2-(trifluoromethyl)imidazo[1,2-a]pyridin-5-yl)cyclohexane-1,3-diamine]
– | 0.1 to 1 µM | Cc1cc2nc(C(F)(F)F)cc(N[C@H]3CCC[C@@H](Nc4nccc5ncn(C)c45)C3)n2n1 [Example 6, (1R,3S)—N^1-(3-Methyl-3H-imidazo[4,5-c]pyridin-4-yl)-N^3-(2-methyl-5-(trifluoromethyl)pyrazolo[1,5-a]pyrimidin-7-yl)cyclohexane-1,3-diamine]
0.1 to 1 µM | 0.0001 to 0.1 µM | Cc1cc2nc(C(F)(F)F)cc(N[C@H]3CCC[C@@H](Nc4nccc5ncccc45)C3)n2n1 [Example 7, (1S,3R)—N^1-(2-Methyl-5-(trifluoromethyl)pyrazolo[1,5-a]pyrimidin-7-yl)-N^3-(1,6-naphthyridin-5-yl)cyclohexane-1,3-diamine]
0.1 to 1 µM | 0.0001 to 0.1 µM | FC(F)(F)c1cc(N[C@H]2CCC[C@@H](Nc3nccn4nccc34)C2)n2nc(Br)cc2n1 [Example 8, (1S,3R)—N^1-(2-Bromo-5-(trifluoromethyl)pyrazolo[1,5-a]pyrimidin-7-yl)-N^3-(pyrazolo[1,5-a]pyrazin-4-yl)cyclohexane-1,3-diamine]
0.0001 to 0.1 µM | 0.0001 to 0.1 µM | FC(F)(F)c1cc(N[C@H]2CCC[C@@H](Nc3nccc4ncccc34)C2)n2nc(Br)cc2n1 [Example 9, (1S,3R)—N^1-(2-Bromo-5-(trifluoromethyl)pyrazolo[1,5-a]pyrimidin-7-yl)-N^3-(1,6-naphthyridin-5-yl)cyclohexane-1,3-diamine]
0.1 to 1 µM | 0.0001 to 0.1 µM | FC(F)(F)c1cc(N[C@H]2CCC[C@@H](Nc3nnc4ccccn34)C2)n2nc(Br)cc2n1 [Example 10, (1R,3S)—N^1—([1,2,4]Triazolo[4,3-a]pyridin-3-yl)-N^3-(2-bromo-5-(trifluoromethyl)pyrazolo[1,5-a]pyrimidin-7-yl)cyclohexane-1,3-diamine]
0.0001 to 0.1 µM | 0.0001 to 0.1 µM | FC(F)(F)c1cc(N[C@H]2CCC[C@@H](Nc3nccc4ncccc34)C2)n2nc(C(F)(F)F)cc2n1 [Example 11, (1S,3R)—N^1-(2,5-Bis(trifluoromethyl)pyrazolo[1,5-a]pyrimidin-7-yl)-N^3-(1,6-naphthyridin-5-yl)cyclohexane-1,3-diamine]
0.1 to 1 µM | 0.0001 to 0.1 µM | FC(F)(F)c1cc(N[C@H]2CCC[C@@H](Nc3nccn4cncc34)C2)n2nc(Br)cc2n1 [Example 12, (1S,3R)—N^1-(2-Bromo-5-(trifluoromethyl)pyrazolo[1,5-a]pyrimidin-7-yl)-N^3-(imidazo[1,5-a]pyrazin-8-yl)cyclohexane-1,3-diamine]
0.1 to 1 µM | 0.0001 to 0.1 µM | Cn1cnc2ccnc(N[C@@H]3CCC[C@H](Nc4cc(C(F)(F)F)nc5cc(Br)nn45)C3)c21 [Example 13, (1S,3R)—N^1-(2-Bromo-5-(trifluoromethyl)pyrazolo[1,5-a]pyrimidin-7-yl)-N^3-(3-methyl-3H-imidazo[4,5-c]pyridin-4-yl)cyclohexane-1,3-diamine]
0.1 to 1 µM | 0.0001 to 0.1 µM | FC(F)(F)c1cc(N[C@H]2CCC[C@@H](Nc3nccn4cncc34)C2)n2nc(C(F)(F)F)cc2n1 [Example 14, (1S,3R)—N^1-(2,5-Bis(trifluoromethyl)pyrazolo[1,5-a]pyrimidin-7-yl)-N^3-(imidazo[1,5-a]pyrazin-8-yl)cyclohexane-1,3-diamine]
0.1 to 1 µM | 0.0001 to 0.1 µM | Cn1cnc2ccnc(N[C@@H]3CCC[C@H](Nc4cc(C(F)(F)F)nc5cc(C(F)(F)F)nn45)C3)c21 [Example 15, (1S,3R)—N^1-(2,5-Bis(trifluoromethyl)pyrazolo[1,5-a]pyrimidin-7-yl)-N^3-(3-methyl-3H-imidazo[4,5-c]pyridin-4-yl)cyclohexane-1,3-diamine]
0.1 to 1 µM | 0.0001 to 0.1 µM | FC(F)(F)c1cc(N[C@H]2CCC[C@@H](Nc3nccc4nccn34)C2)n2nc(Br)cc2n1 [Example 16, (1S,3R)—N^1-(2-Bromo-5-(trifluoromethyl)pyrazolo[1,5-a]pyrimidin-7-yl)-N^3-(imidazo[1,2-c]pyrimidin-5-yl)cyclohexane-1,3-diamine]
0.0001 to 0.1 µM | 0.0001 to 0.1 µM | FC(F)(F)c1cc(N[C@H]2CCC[C@@H](Nc3nccc4nccn34)C2)n2nc(C(F)(F)F)cc2n1 [Example 17, (1S,3R)—N^1-(2,5-Bis(trifluoromethyl)pyrazolo[1,5-a]pyrimidin-7-yl)-N^3-(imidazo[1,2-c]pyrimidin-5-yl)cyclohexane-1,3-diamine]
0.1 to 1 µM | 0.0001 to 0.1 µM | FC(F)(F)c1cc(N[C@H]2CCC[C@@H](Nc3nnc4ccccn34)C2)n2nc(C(F)(F)F)cc2n1 [Example 18, (1R,3S)—N^1—([1,2,4]Triazolo[4,3-a]pyridin-3-yl)-N^3-(2,5-bis(trifluoromethyl)pyrazolo[1,5-a]pyrimidin-7-yl)cyclohexane-1,3-diamine]
